Data set [1] relates to mouse ES cells. The data set can be described thus: Immunostaining of pluripotent stem cell markers (Sox2, Nanog, Oct4), ES cells. The data set is classed as cell-based. As to conditions: ES cells, BRQ 10 μM. How it is done:
(§1) The cells were fixed and immunostained as described in Kondo et al., Genes Dev. […] For the culture of ES cells and iPS cells, gelatin-coated ones were used.
(§2) For immunostaining, the cells were first washed once with PBS, then fixed by adding 4% paraformaldehyde and incubating for 10 minutes at room temperature. The cells were replaced with PBS containing 0.3% Triton X100 and incubated for 5 minutes at room temperature, then replaced with PBS containing 0.3% Triton X100 and 10% FCS (blocking solution) and incubated for 30 minutes at room temperature. The solution was replaced with primary antibody solution diluted in blocking solution and incubated for 2 hours at room temperature. After washing three times with PBS, secondary antibody and DAPI solution diluted with blocking solution were added and incubated at room temperature for 2 hours. […] Note that the cell nuclei were visualized by contrast staining with DAPI solution (1 μg/mL, manufactured by Dojindo, product code: D523). In addition, fluorescence images were acquired with an Axiolmager M1 microscope (manufactured by Carl Zeiss).
(§3) LMB is a specific inhibitor of CRM1, also known as Exportin 1.

In data set [2] the test system is mouse iPS cells. Put plainly: Immunostaining of pluripotent stem cell markers (Sox2, Nanog, Oct4), iPS cells. The data set is classed as cell-based. As to conditions: iPS cells, BRQ 10 μM. How it is done: as §1, §2, §3
For data set [3], the system named is mouse ES cells. The data set can be described thus: Nucleoside neutralization experiment (MTT), ES cells. As to conditions: 10 μM BRQ, 3 days, added up to 500 μM. The source says:
(§4) Pyrimidine synthesis is regulated by the de novo (de novo synthesis) pathway and salvage pathway. DHODH is a key factor in de novo synthesis, catalyzing the fourth chemical reaction in the synthetic pathway. In view of this, the present inventor investigated whether the effect of eliminating pluripotent stem cells by DHODH inhibitors could be eliminated by adding nucleosides such as uridine, which is the starting material of the salvage pathway.
(§5) In addition, UMP, a product of the pyrimidine synthesis pathway, is converted to UDP and UTP. Furthermore, uridine diphosphate-N-acetylglucosamine (UDP-GlcNac) is also biosynthesized using UTP as a substrate. […] Therefore, the present inventor verified whether the cytotoxic activity of DHODH inhibitors on pluripotent stem cells could also be neutralized by the products from these UMPs.

For data set [4], the system named is mouse iPS cells. The data set can be described thus: Nucleoside neutralization experiment (MTT), iPS cells. As to conditions: 10 μM BRQ, 3 days, added up to 500 μM.
Source text: as §4, §5

Peptide text beside a SMILES is read from it. * marks the point of attachment. Cbz = O=C(OCc1ccccc1)*; CH2F = FC*

Consider `CCC(=C/[C@H](C)C/C=C/C(C)=C/[C@@H](C)C(=O)[C@@H](C)[C@H](O)[C@@H](C)C/C(C)=C/C(=O)O)/C=C/[C@@H]1OC(=O)C=C[C@@H]1C` [LMB, leptomycin B], for which the “nuclear export of Nanog and Oct4 in cells treated with BRQ” value is “completely suppressed” in data set [1] (2 days, LMB 0.15 nM) and “completely suppressed” in data set [2] (2 days, LMB 0.15 nM).
In the case of `CC(NC(=O)C(NC(=O)OCc1ccccc1)C(C)C)C(=O)NC(CC(=O)O)C(=O)CF` (stereo not drawn) [Z-VAD] (Cbz-Val-Ala-Asp-CH2F; configuration not given here), the “effect on BRQ-dependent cell death” value in data set [1] (ZVAD 100 nM) and in data set [2] (ZVAD 100 nM) was “slight delay” throughout.
In the case of “uridine diphosphate-N-acetylglucosamine [UDP-GlcNac]”, the “neutralizing activity against the cytotoxic activity of BRQ” value in data set [3] and in data set [4] was “neutralized” in each case.

Source of the values: patent publication US20220364065A1, “COMPOSITION FOR REMOVING PLURIPOTENT STEM CELLS AND METHOD OF REMOVING PLURIPOTENT STEM CELLS” (NATIONAL UNIVERSITY CORPORATION HOKKAIDO UNIVERSITY, priority 2018, published 2022).
